Laboratory results as given in patent publication US20110318741A1, “BIOMARKERS FOR THE TREATMENT OF PSORIASIS” (priority 2010, published 2011).

Key:
[1] = system: recalcitrant psoriasis vulgaris; assay: PASI score in phase 2, multi-center, open-label study; type: in vivo, human; conditions: for PSAI Median Change (%): 20 mg BID; for subjects who had PASI-75 response: week 12
Excerpt: (§1) The pharmacodynamic effects of (S)—N-(2-(1-(3-ethoxy-4-methoxyphenyl)-2-(methylsulfonyl)ethyl)-1,3-dioxoisoindolin-4-yl)acetamide were studied in skin biopsies from subjects treated with the compound in a phase 2, multi-center, open-label study evaluating the safety, tolerability, and efficacy of the compound in recalcitrant psoriasis vulgaris. Skin biopsies were taken from uninvolved and involved skin at baseline, and from involved skin after treatment with (S)—N-(2-(1-(3-ethoxy-4-methoxyphenyl)-2-(methylsulfonyl)ethyl)-1,3-dioxoisoindolin-4-yl)acetamide 20 mg BID after 4 and 12 weeks.
Additionally, the reductions observed from biopsies were evaluated separately in responders and non-responders.
To identify changes in cellular infiltration or gene expression that correlate with changes in PASI score, a correlation analysis was performed using the Spearman rank-order correlation method. […] A strong trend was observed between the decrease in CD11c+myeloid DC in the epidermis the decrease in PASI score at week 4 (p=0.052).

[2] = system: proinflammatory gene products in psoriasis lesional skin; assay: mRNA abundance of inflammatory molecules in skin biopsies by real-time RT-PCR, normalized to hARP; type: in vivo, human; conditions: Week 4, 20 mg BID, subjects also with PASI values
Experimental: mRNA abundance for a variety of inflammatory molecules was measured by real-time RT-PCR and expression was normalized to the house-keeping gene HARP (human acidic ribosomal protein). Inflammatory markers assessed by mRNA levels included the chemokine CXCL9, beta-defensin (DEFB4), interferon-gamma, IL-10, IL-17a, IL-22, IL-8, keratin 16, MX-1, IL-12/23 p40, IL-23 p19, iNOS and TNF. These are inflammatory molecules produced by activated DC populations, Th1, Th17, Th22 T-cells and response genes to interferon (MX-1. CXCL9) or IL-17 (defensin). Keratin 16 was also measured by mRNA levels to assess the epidermal response by an alternate means.
as §1
The expression of proinflammatory gene products known to be involved in the pathogenesis of psoriasis was measured by real-time polymerase chain reaction (RT-PCR). With regard to gene expression, there were reductions in iNOS and IL-12/IL-23 p40 mRNAs along with reductions in IL-17A and IL-22 mRNAs, indicating inhibition of the Th1, Th17, and Th22 pathways (FIG. 5). […] Normalized IL-17A mRNA levels were reduced by 49% at week 12 and normalized IL-22 mRNA levels were reduced by 100% at week 12. DEFB4, a defensin induced in keratinocytes by IL-17, was reduced by 55% in week 4 biopsies and by 82% in week 12 biopsies. IL-8, which is induced in keratinocytes by IL-17, was reduced by 76% in week 4 biopsies and by 66% in week 12 biopsies.

Structure (SMILES): CCOc1cc([C@@H](CS(C)(=O)=O)N2C(=O)c3cccc(NC(C)=O)c3C2=O)ccc1OC [(S)—N-(2-(1-(3-ethoxy-4-methoxyphenyl)-2-(methylsulfonyl)ethyl)-1,3-dioxoisoindolin-4-yl)acetamide]
- PSAI Median Change (%) ([1]; Week 4, subjects also with CD3 in Dermis values, No. 19): −29.0%
- PSAI Median Change (%) ([1]; Week 4, subjects also with CD3 in Epidermis values, No. 19): −29.0%
- PSAI Median Change (%) ([1]; Week 4, subjects also with CD11c in Dermis values, No. 20): −32.0%
- PSAI Median Change (%) ([1]; Week 4, subjects also with CD11c in Epidermis values, No. 18): −26.5%
- PSAI Median Change (%) ([1]; Week 4, subjects also with CD56 in Dermis values, No. 20): −32.0%
- PSAI Median Change (%) ([1]; Week 4, subjects also with CD56 in Epidermis values, No. 16): −15.0%
- PSAI Median Change (%) ([1]; Week 4, subjects also with CD83/hARP values, No. 15): −18.0%
- PSAI Median Change (%) ([1]; Week 4, subjects also with CXCL9/hARP values, No. 17): −29.0%
- PSAI Median Change (%) ([1]; Week 4, subjects also with DEFB4/hARP values, No. 16): −23.5%
- PSAI Median Change (%) ([1]; Week 4, subjects also with IFNγ/hARP values, No. 15): −35.0%
- PSAI Median Change (%) ([1]; Week 4, subjects also with IL-2/hARP values, No. 12): −32.0%
- PSAI Median Change (%) ([1]; Week 4, subjects also with IL-8/hARP values, No. 18): −32.0%
- PSAI Median Change (%) ([1]; Week 4, subjects also with IL-10/hARP values, No. 18): −32.0%
- PSAI Median Change (%) ([1]; Week 4, subjects also with IL-17A/hARP values, No. 16): −23.5%
- PSAI Median Change (%) ([1]; Week 4, subjects also with IL-22/hARP values, No. 10): −18.5%
- PSAI Median Change (%) ([1]; Week 4, subjects also with K16/hARP values, No. 18): −32.0%
- PSAI Median Change (%) ([1]; Week 4, subjects also with Langerin in Dermis values, No. 17): −18.0%
- PSAI Median Change (%) ([1]; Week 4, subjects also with Langerin in Epidermis values, No. 20): −32.0%
- PSAI Median Change (%) ([1]; Week 4, subjects also with MX1/hARP values, No. 17): −29.0%
- PSAI Median Change (%) ([1]; Week 4, subjects also with TNFα/hARP values, No. 17): −29.0%
- PSAI Median Change (%) ([1]; Week 4, subjects also with Thickness values, No. 19): −29.0%
- PSAI Median Change (%) ([1]; Week 4, subjects also with iNOS/hARP values, No. 15): −35.0%
- PSAI Median Change (%) ([1]; Week 4, subjects also with p19/hARP values, No. 18): −32.0%
- PSAI Median Change (%) ([1]; Week 4, subjects also with p40/hARP values, No. 13): −29.0%
- PSAI Median Change (%) ([1]; Week 12, subjects also with CD3 in Dermis values, No. 15): −48.0%
- PSAI Median Change (%) ([1]; Week 12, subjects also with CD3 in Epidermis values, No. 15): −48.0%
- PSAI Median Change (%) ([1]; Week 12, subjects also with CD11c in Dermis values, No. 14): −52.5%
- PSAI Median Change (%) ([1]; Week 12, subjects also with CD11c in Epidermis values, No. 13): −45.0%
- PSAI Median Change (%) ([1]; Week 12, subjects also with CD56 in Dermis values, No. 15): −48.0%
- PSAI Median Change (%) ([1]; Week 12, subjects also with CD56 in Epidermis values, No. 12): −42.5%
- PSAI Median Change (%) ([1]; Week 12, subjects also with CD83/hARP values, No. 11): −48.0%
- PSAI Median Change (%) ([1]; Week 12, subjects also with CXCL9/hARP values, No. 11): −48.0%
- PSAI Median Change (%) ([1]; Week 12, subjects also with DEFB4/hARP values, No. 10): −46.5%
- PSAI Median Change (%) ([1]; Week 12, subjects also with IFNγ/hARP values, No. 12): −54.0%
- PSAI Median Change (%) ([1]; Week 12, subjects also with IL-2/hARP values, No. 10): −54.0%
- PSAI Median Change (%) ([1]; Week 12, subjects also with IL-8/hARP values, No. 14): −54.0%
- PSAI Median Change (%) ([1]; Week 12, subjects also with IL-10/hARP values, No. 14): −54.0%
- PSAI Median Change (%) ([1]; Week 12, subjects also with IL-17A/hARP values, No. 10): −46.5%
- PSAI Median Change (%) ([1]; Week 12, subjects also with IL-22/hARP values, No. 6): −46.5%
- PSAI Median Change (%) ([1]; Week 12, subjects also with K16/hARP values, No. 14): −54.0%
- PSAI Median Change (%) ([1]; Week 12, subjects also with Langerin in Dermis values, No. 12): −54.0%
- PSAI Median Change (%) ([1]; Week 12, subjects also with Langerin in Epidermis values, No. 15): −48.0%
- PSAI Median Change (%) ([1]; Week 12, subjects also with MX1/hARP values, No. 11): −48.0%
- PSAI Median Change (%) ([1]; Week 12, subjects also with TNFα/hARP values, No. 13): −60.0%
- PSAI Median Change (%) ([1]; Week 12, subjects also with Thickness values, No. 14): −46.5%
- PSAI Median Change (%) ([1]; Week 12, subjects also with iNOS/hARP values, No. 11): −48.0%
- PSAI Median Change (%) ([1]; Week 12, subjects also with p19/hARP values, No. 14): −54.0%
- PSAI Median Change (%) ([1]; Week 12, subjects also with p40/hARP values, No. 7): −48.0%
- subjects who had PASI-75 response ([1]; IFNγ analysis set (eight subjects non PASI-75)): four
- subjects who had PASI-75 response ([1]; Langerin in dermis analysis set (ten subjects non PASI-75)): four
- IL-22/hARP: Gene Expression Median Change (%) ([2]; No. 10): −74.4%
- IL-2/hARP: Gene Expression Median Change (%) ([2]; No. 12): 3.33%
- p40/hARP: Gene Expression Median Change (%) ([2]; No. 13): −100%
- CD83/hARP: Gene Expression Median Change (%) ([2]; No. 15): −12.4%
- IFNγ/hARP: Gene Expression Median Change (%) ([2]; No. 15): −38.2%
- iNOS/hARP: Gene Expression Median Change (%) ([2]; No. 15): −61.0%
- DEFB4/hARP: Gene Expression Median Change (%) ([2]; No. 16): −55.4%
- IL-17A/hARP: Gene Expression Median Change (%) ([2]; No. 16): −72.5%
